Test results as given in PubChem BioAssay AID256 (DTP/NCI, 2004).
Values joined by “and” are separate entries in the source; they are usually repeats but may differ in a detail not shown here. Equal values may be shown once. Toxic doses and inconclusive results are not listed. How the source made its calls: active means survival T/C of 150% or more; inactive means T/C below 125% in these data.

Tested on: CD2F1 mice, L1210 leukemia ip, survival T/C
Experiment: NCI In Vivo Anticancer Drug Screen. Data for tumor model L1210 Leukemia (intraperitoneal) in CD2F1 (CDF1) mice
Conditions: higher = longer survival
Method in brief: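 Vehicle-treated tumor-bearing mice served as controls (C) for compound-treated mice (T). Reported figure is T divided by C.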

[1] = endpoint: mean survival time, dose: 100.0 mg/kg/injection, schedule: Q01DX009 (ip), vehicle: saline with Tween-80
[2] = endpoint: mean survival time, dose: 200.0 mg/kg/injection, schedule: Q01DX009 (ip), vehicle: saline with Tween-80
[3] = endpoint: mean survival time, dose: 100.0 mg/kg/injection, schedule: Q04DX003 (ip), vehicle: saline with Tween-80
[4] = endpoint: mean survival time, dose: 200.0 mg/kg/injection, schedule: Q04DX003 (ip), vehicle: saline with Tween-80
[5] = endpoint: mean survival time, dose: 400.0 mg/kg/injection, schedule: Q04DX003 (ip), vehicle: saline with Tween-80
[6] = endpoint: mean survival time, dose: 12.5 mg/kg/injection, schedule: Q04DX003 (ip), vehicle: saline
[7] = endpoint: mean survival time, dose: 100.0 mg/kg/injection, schedule: Q04DX002 (ip), vehicle: saline with Tween-80
[8] = endpoint: mean survival time, dose: 200.0 mg/kg/injection, schedule: Q04DX002 (ip), vehicle: saline with Tween-80
[9] = endpoint: mean survival time, dose: 400.0 mg/kg/injection, schedule: Q04DX002 (ip), vehicle: saline with Tween-80
[10] = endpoint: mean survival time, dose: 100.0 mg/kg/injection, schedule: Q01DX001 (ip), vehicle: saline with Tween-80
[11] = endpoint: mean survival time, dose: 12.5 mg/kg/injection, schedule: Q01DX009 (ip), vehicle: saline with Tween-80
[12] = endpoint: mean survival time, dose: 25.0 mg/kg/injection, schedule: Q04DX003 (ip), vehicle: saline with Tween-80
[13] = endpoint: mean survival time, dose: 50.0 mg/kg/injection, schedule: Q04DX003 (ip), vehicle: saline with Tween-80
[14] = endpoint: mean survival time, dose: 200.0 mg/kg/injection, schedule: Q01DX001 (ip), vehicle: saline with Tween-80
[15] = endpoint: mean survival time, dose: 400.0 mg/kg/injection, schedule: Q01DX001 (ip), vehicle: saline with Tween-80

Measured: T/C

O=c1[nH]c(=O)n(CCCO)cc1F
inactive: endpoint: mean survival time, dose: 12.5 mg/kg/injection, schedule: Q01DX005 (ip), vehicle: water 111 % of control | endpoint: mean survival time, dose: 25.0 mg/kg/injection, schedule: Q01DX005 (ip), vehicle: water 115 % of control and 103 % of control | endpoint: mean survival time, dose: 50.0 mg/kg/injection, schedule: Q01DX005 (ip), vehicle: water 122 % of control and 123 % of control | endpoint: mean survival time, dose: 200.0 mg/kg/injection, schedule: Q01DX005 (ip), vehicle: water 96 % of control

N#CCCNCCNCCC#N
inactive: endpoint: mean survival time, dose: 50.0 mg/kg/injection, schedule: Q01DX009 (ip), vehicle: saline with Tween-80 96 % of control | [1] 104 % of control | [2] 104 % of control

COc1ccc(NC(=O)Nc2ccccc2F)cc1
inactive: [3] 102 % of control | [4] 101 % of control | [5] 95 % of control

CCCCCCCCCCCCCCCC[N+]1(C)CCSCC1
inactive: endpoint: mean survival time, dose: 0.78 mg/kg/injection, schedule: Q01DX009 (ip), vehicle: saline 93 % of control and 103 % of control | endpoint: mean survival time, dose: 1.56 mg/kg/injection, schedule: Q04DX003 (ip), vehicle: saline 106 % of control | endpoint: mean survival time, dose: 3.13 mg/kg/injection, schedule: Q01DX001 (ip), vehicle: saline 104 % of control | endpoint: mean survival time, dose: 3.13 mg/kg/injection, schedule: Q04DX003 (ip), vehicle: saline 110 % of control | endpoint: mean survival time, dose: 6.25 mg/kg/injection, schedule: Q01DX001 (ip), vehicle: saline 104 % of control | endpoint: mean survival time, dose: 6.25 mg/kg/injection, schedule: Q04DX003 (ip), vehicle: saline 104 % of control | endpoint: mean survival time, dose: 12.5 mg/kg/injection, schedule: Q01DX001 (ip), vehicle: saline with Tween-80 97 % of control | endpoint: mean survival time, dose: 12.5 mg/kg/injection, schedule: Q01DX001 (ip), vehicle: saline 104 % of control | [6] 102 % of control | endpoint: mean survival time, dose: 25.0 mg/kg/injection, schedule: Q01DX001 (ip), vehicle: saline with Tween-80 95 % of control | endpoint: mean survival time, dose: 25.0 mg/kg/injection, schedule: Q01DX001 (ip), vehicle: saline 104 % of control | endpoint: mean survival time, dose: 25.0 mg/kg/injection, schedule: Q01DX009 (ip), vehicle: saline 87 % of control | endpoint: mean survival time, dose: 25.0 mg/kg/injection, schedule: Q04DX002 (ip), vehicle: saline 88 % of control | endpoint: mean survival time, dose: 50.0 mg/kg/injection, schedule: Q01DX001 (ip), vehicle: saline with Tween-80 100 % of control

COc1ccncn1
inactive: [7] 98 % of control | [8] 95 % of control | [9] 106 % of control

CCCCNP(=S)(NCCCC)NCCCC
inactive: [7] 94 % of control | [8] 94 % of control | [9] 98 % of control

C=Cc1cnc(N)nc1-c1ccc(OC)cc1
inactive: [7] 101 % of control | [8] 96 % of control | [9] 96 % of control

C=C(Br)CN=C=S
inactive: [6] 94 % of control | endpoint: mean survival time, dose: 25.0 mg/kg/injection, schedule: Q04DX003 (ip), vehicle: saline 94 % of control | endpoint: mean survival time, dose: 50.0 mg/kg/injection, schedule: Q04DX003 (ip), vehicle: saline 88 % of control

Oc1cc2c3c(c1)c1cc4c(cc1c[n+]3CC2)OCO4
inactive: endpoint: mean survival time, dose: 3.13 mg/kg/injection, schedule: Q01DX009 (ip), vehicle: other 115 % of control | endpoint: mean survival time, dose: 3.13 mg/kg/injection, schedule: Q01DX009 (ip), vehicle: water 124 % of control | endpoint: mean survival time, dose: 12.5 mg/kg/injection, schedule: Q01DX009 (ip), vehicle: water 122 % of control | endpoint: mean survival time, dose: 25.0 mg/kg/injection, schedule: Q01DX009 (ip), vehicle: other 115 % of control

O=c1cc(CCl)oc(Br)c1O
inactive: endpoint: mean survival time, dose: 25.0 mg/kg/injection, schedule: Q04DX002 (ip), vehicle: saline with Tween-80 98 % of control | endpoint: mean survival time, dose: 50.0 mg/kg/injection, schedule: Q04DX002 (ip), vehicle: saline with Tween-80 98 % of control | [7] 91 % of control

COc1cc2ccnc(Nc3ccccc3)c2cc1OC
inactive: [7] 95 % of control | [8] 95 % of control | [9] 87 % of control

Nn1cnc2ccccc2c1=O
inactive: endpoint: mean survival time, dose: 100.0 mg/kg/injection, schedule: Q01DX001 (ip), vehicle: saline 101 % of control | endpoint: mean survival time, dose: 200.0 mg/kg/injection, schedule: Q01DX001 (ip), vehicle: saline 102 % of control | endpoint: mean survival time, dose: 400.0 mg/kg/injection, schedule: Q01DX001 (ip), vehicle: saline 102 % of control

CC1=NC2=Nc3cc[n+](C4OC(CO)C(O)C4O)c(=O)n3CC2=CN1C (stereo unspecified)
inactive: endpoint: median survival time, dose: 12.5 mg/kg/injection, schedule: Q01DX005 (ip), vehicle: water 107 % of control | endpoint: median survival time, dose: 25.0 mg/kg/injection, schedule: Q01DX005 (ip), vehicle: water 105 % of control | endpoint: median survival time, dose: 50.0 mg/kg/injection, schedule: Q01DX005 (ip), vehicle: water 105 % of control | endpoint: median survival time, dose: 100.0 mg/kg/injection, schedule: Q01DX005 (ip), vehicle: water 105 % of control and 107 % of control | endpoint: median survival time, dose: 200.0 mg/kg/injection, schedule: Q01DX005 (ip), vehicle: water 103 % of control and 105 % of control | endpoint: median survival time, dose: 400.0 mg/kg/injection, schedule: Q01DX005 (ip), vehicle: water 104 % of control

N=c1sc2ccccc2n1CC(=O)O
inactive: [10] 100 % of control

CCCCCCCCCCCCCCCc1ccc(C(=O)C[n+]2ccccc2)cc1
inactive: [11] 117 % of control | endpoint: mean survival time, dose: 12.5 mg/kg/injection, schedule: Q04DX003 (ip), vehicle: saline with Tween-80 103 % of control | [12] 106 % of control | [13] 111 % of control

CC(CO)CCC1OC2CC3C4CCC5CC(O)CCC5(C)C4CCC3(C)C2C1C (stereo unspecified)
inactive: [10] 95 % of control | [14] 94 % of control

[Cl][Pt+2][Cl].[NH-]Cc1cccc(F)c1.[NH-]Cc1cccc(F)c1
inactive: endpoint: mean survival time, dose: 12.5 mg/kg/injection, schedule: Q04DX003 (ip), vehicle: distilled water + Tween-80 95 % of control | endpoint: mean survival time, dose: 25.0 mg/kg/injection, schedule: Q04DX003 (ip), vehicle: distilled water + Tween-80 95 % of control | endpoint: mean survival time, dose: 50.0 mg/kg/injection, schedule: Q04DX003 (ip), vehicle: distilled water + Tween-80 95 % of control | endpoint: mean survival time, dose: 100.0 mg/kg/injection, schedule: Q04DX003 (ip), vehicle: distilled water + Tween-80 100 % of control | endpoint: mean survival time, dose: 200.0 mg/kg/injection, schedule: Q04DX003 (ip), vehicle: distilled water + Tween-80 100 % of control

CC1=CS(=O)(=O)CC(=O)N1
inactive: [3] 103 % of control | [4] 98 % of control | [5] 95 % of control

CCOC(=O)/C=C/C(=O)N1CCN(C(=O)/C=C/C(=O)OCC)C(C)C1 (stereo unspecified)
inactive: endpoint: median survival time, dose: 25.0 mg/kg/injection, schedule: Q01DX009 (ip), vehicle: Klucel (hydroxypropylcellulose) (HPC) 106 % of control | endpoint: median survival time, dose: 50.0 mg/kg/injection, schedule: Q01DX009 (ip), vehicle: Klucel (hydroxypropylcellulose) (HPC) 110 % of control | endpoint: median survival time, dose: 100.0 mg/kg/injection, schedule: Q01DX009 (ip), vehicle: Klucel (hydroxypropylcellulose) (HPC) 109 % of control | endpoint: median survival time, dose: 200.0 mg/kg/injection, schedule: Q01DX009 (ip), vehicle: Klucel (hydroxypropylcellulose) (HPC) 109 % of control | endpoint: median survival time, dose: 400.0 mg/kg/injection, schedule: Q01DX009 (ip), vehicle: Klucel (hydroxypropylcellulose) (HPC) 109 % of control

[Cl][PtH].c1ccc([PH+](c2ccccc2)c2ccccc2)cc1.c1ccc([PH+](c2ccccc2)c2ccccc2)cc1
inactive: [10] 92 % of control | [14] 92 % of control | [15] 95 % of control

CC1(C)C(N2CCOCC2)C(c2ccccc2)S1(=O)=O (stereo unspecified)
inactive: [10] 101 % of control | [14] 105 % of control | [15] 105 % of control

CCCCNC(C)(C)C(SSC(c1ccc(Cl)cc1)C(C)(C)NCCCC)c1ccc(Cl)cc1 (stereo unspecified)
inactive: endpoint: mean survival time, dose: 6.25 mg/kg/injection, schedule: Q01DX009 (ip), vehicle: saline with Tween-80 96 % of control | [11] 98 % of control | endpoint: mean survival time, dose: 25.0 mg/kg/injection, schedule: Q01DX009 (ip), vehicle: saline with Tween-80 96 % of control and 100 % of control | [12] 90 % of control | [13] 92 % of control | [3] 95 % of control and 96 % of control

CCCOC(=O)C1CCCCC1C(=O)OCCC (stereo unspecified)
inactive: endpoint: mean survival time, dose: 100.0 mg/kg/injection, schedule: Q04DX003 (ip), vehicle: saline 98 % of control | endpoint: mean survival time, dose: 200.0 mg/kg/injection, schedule: Q04DX003 (ip), vehicle: saline 98 % of control | endpoint: mean survival time, dose: 400.0 mg/kg/injection, schedule: Q04DX003 (ip), vehicle: saline 104 % of control

Oc1ccccc1C=Nc1ccc(N=Cc2ccccc2O)cc1
inactive: [3] 88 % of control | [4] 91 % of control | [5] 100 % of control

O=C1SCCC1NP(=O)(Oc1ccccc1)Oc1ccccc1 (stereo unspecified)
inactive: [1] 93 % of control | [2] 103 % of control | endpoint: mean survival time, dose: 400.0 mg/kg/injection, schedule: Q01DX009 (ip), vehicle: saline with Tween-80 93 % of control
